According to PubChem BioAssay AID2060488 (Molecular Pharmacology Branch, DTP, NCI, 2025):

Test system: 966289-007-R4-J1-PDC complex spheroid viability
Experiment: Anticancer human tumor 966289-007-R4-J1-PDC patient-derived pancreatic adenocarcinoma cell line growth inhibition [GQUAD]
Details: for IC50: curve of first compound; for viability, T/C: stronger effect = lower value
In short: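 Multi-cell-type spheroids of tumor cells with HUVEC and mesenchymal stem cells, treated with drug combinations. Concentrations descend in half-log steps from near clinical Cmax, or from 10 microM where Cmax is unknown; viability read-out.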

[1] = second compound 0.0316 µM, first compound 0.0316 µM
[2] = second compound 0.0316 µM, first compound 0.1 µM
[3] = second compound 0.0316 µM, first compound 0.316 µM
[4] = second compound 0.0316 µM, first compound 1 µM
[5] = second compound 0.0316 µM, first compound 3.16 µM
[6] = second compound 0.0316 µM, first compound 10 µM
[7] = second compound 0.1 µM, first compound 0.0316 µM
[8] = second compound 0.1 µM, first compound 0.1 µM
[9] = second compound 0.1 µM, first compound 0.316 µM
[10] = second compound 0.1 µM, first compound 1 µM
[11] = second compound 0.1 µM, first compound 3.16 µM
[12] = second compound 0.1 µM, first compound 10 µM
[13] = second compound 0.316 µM, first compound 0.0316 µM
[14] = second compound 0.316 µM, first compound 0.1 µM
[15] = second compound 0.316 µM, first compound 0.316 µM
[16] = second compound 0.316 µM, first compound 1 µM
[17] = second compound 0.316 µM, first compound 3.16 µM
[18] = second compound 0.316 µM, first compound 10 µM
[19] = second compound 1 µM, first compound 0.0316 µM
[20] = second compound 1 µM, first compound 0.1 µM
[21] = second compound 1 µM, first compound 0.316 µM
[22] = second compound 1 µM, first compound 1 µM
[23] = second compound 1 µM, first compound 3.16 µM
[24] = second compound 1 µM, first compound 10 µM
[25] = second compound 3.16 µM, first compound 0.0316 µM
[26] = second compound 3.16 µM, first compound 0.1 µM
[27] = second compound 3.16 µM, first compound 0.316 µM
[28] = second compound 3.16 µM, first compound 1 µM
[29] = second compound 3.16 µM, first compound 3.16 µM
[30] = second compound 3.16 µM, first compound 10 µM
[31] = second compound 10 µM, first compound 0.0316 µM
[32] = second compound 10 µM, first compound 0.1 µM
[33] = second compound 10 µM, first compound 0.316 µM
[34] = second compound 10 µM, first compound 1 µM
[35] = second compound 10 µM, first compound 3.16 µM
[36] = second compound 10 µM, first compound 10 µM
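Further: spheroids exposed to the agents for seven days before readout.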
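Wherever viability, T/C is given: percent viability relative to DMSO vehicle control wells taken as 100%.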

Work on `COc1cc(C2c3cc4c(cc3C(OC3OC5COC(C)OC5C(O)C3O)C3COC(=O)C23)OCO4)cc(OC)c1O` (stereo not drawn) + Cc1[nH]c2ccc(F)cc2c1-c1nc2c3cccnc3c3ncccc3c2[nH]1 yielded an IC50 (second compound 0.0316 µM) of 321 nM, an IC50 (second compound 0.1 µM) of 273 nM and an IC50 (second compound 0.316 µM) of 312 nM. It also gave an IC50 (second compound 1 µM) of 303 nM, an IC50 (second compound 3.16 µM) of 252 nM and an IC50 (second compound 10 µM) of 220 nM. It also gave a viability, T/C [1] of 107%, a viability, T/C [2] of 104% and a viability, T/C [3] of 50.5%. It also gave a viability, T/C [4] of 4.72%, a viability, T/C [5] of 2.07% and a viability, T/C [6] of 0.7%. It also gave a viability, T/C [7] of 107%, a viability, T/C [8] of 105% and a viability, T/C [9] of 41.7%. The viability, T/C [10] was 7.49%, the viability, T/C [11] was 1.48% and the viability, T/C [12] was 0.65%. It also gave a viability, T/C [13] of 102%, a viability, T/C [14] of 112% and a viability, T/C [15] of 49.2%. The viability, T/C [16] was 7.18%, the viability, T/C [17] was 1.57% and the viability, T/C [18] was 0.55%. For the same compound, the viability, T/C [19] was 99.4%, the viability, T/C [20] was 110% and the viability, T/C [21] was 48%. The viability, T/C [22] was 7.65%, the viability, T/C [23] was 1.61% and the viability, T/C [24] was 0.65%. For the same compound, the viability, T/C [25] was 108%, the viability, T/C [26] was 99.6% and the viability, T/C [27] was 37.6%. It also gave a viability, T/C [28] of 6.91%, a viability, T/C [29] of 2.31% and a viability, T/C [30] of 0.77%. It also gave a viability, T/C [31] of 101%, a viability, T/C [32] of 97.2% and a viability, T/C [33] of 28.1%. The viability, T/C [34] was 3.87%, the viability, T/C [35] was 1.57% and the viability, T/C [36] was 0.58%.
`COc1cccc2c1C(=O)c1c(O)c3c(c(O)c1C2=O)CC(O)(C(=O)CO)CC3OC1CC(N)C(O)C(C)O1` (stereo not drawn) + Cc1[nH]c2ccc(F)cc2c1-c1nc2c3cccnc3c3ncccc3c2[nH]1 was tested, and the IC50 (second compound 0.0316 µM) was 67.3 nM, the IC50 (second compound 0.1 µM) was 63.6 nM and the IC50 (second compound 0.316 µM) was 61.1 nM. The IC50 (second compound 1 µM) was 61.2 nM, the IC50 (second compound 3.16 µM) was 56.5 nM and the IC50 (second compound 10 µM) was 52 nM. The viability, T/C [1] was 114%, the viability, T/C [2] was 16.4% and the viability, T/C [3] was 1.91%. The viability, T/C [4] was 0.7%, the viability, T/C [5] was 0.21% and the viability, T/C [6] was 0.6%. It also gave a viability, T/C [7] of 104%, a viability, T/C [8] of 15.1% and a viability, T/C [9] of 2.16%. For the same compound, the viability, T/C [10] was 0.91%, the viability, T/C [11] was 0.22% and the viability, T/C [12] was 0.26%. It also gave a viability, T/C [13] of 100%, a viability, T/C [14] of 12.6% and a viability, T/C [15] of 2.39%. For the same compound, the viability, T/C [16] was 0.78%, the viability, T/C [17] was 0.23% and the viability, T/C [18] was 0.33%. It also gave a viability, T/C [19] of 97.1%, a viability, T/C [20] of 14.7% and a viability, T/C [21] of 2.52%. It also gave a viability, T/C [22] of 0.71%, a viability, T/C [23] of 0.32% and a viability, T/C [24] of 0.5%. It also gave a viability, T/C [25] of 87.9%, a viability, T/C [26] of 12.9% and a viability, T/C [27] of 2.39%. The viability, T/C [28] was 0.86%, the viability, T/C [29] was 0.29% and the viability, T/C [30] was 0.56%. For the same compound, the viability, T/C [31] was 79.9%, the viability, T/C [32] was 10.9% and the viability, T/C [33] was 1.72%. The viability, T/C [34] was 0.61%, the viability, T/C [35] was 0.4% and the viability, T/C [36] was 0.57%.
Work on `Cn1ncnc1[C@H]1c2n[nH]c(=O)c3cc(F)cc(c23)N[C@@H]1c1ccc(F)cc1` + Cc1[nH]c2ccc(F)cc2c1-c1nc2c3cccnc3c3ncccc3c2[nH]1 yielded an IC50 (second compound 0.0316 µM) of 101 nM, an IC50 (second compound 0.1 µM) of 89.8 nM and an IC50 (second compound 0.316 µM) of 105 nM. For the same compound, the IC50 (second compound 1 µM) was 127 nM, the IC50 (second compound 3.16 µM) was 76.3 nM and the IC50 (second compound 10 µM) was 63.6 nM. The viability, T/C (second compound 0.0316 µM, first compound 0.000999 µM) was 108%, the viability, T/C (second compound 0.0316 µM, first compound 0.00316 µM) was 95.8% and the viability, T/C (second compound 0.0316 µM, first compound 0.00999 µM) was 105%. The viability, T/C [1] was 96.8%, the viability, T/C (second compound 0.0316 µM, first compound 0.0999 µM) was 50.3% and the viability, T/C [3] was 21%. It also gave a viability, T/C (second compound 0.1 µM, first compound 0.000999 µM) of 101%, a viability, T/C (second compound 0.1 µM, first compound 0.00316 µM) of 99.4% and a viability, T/C (second compound 0.1 µM, first compound 0.00999 µM) of 106%. For the same compound, the viability, T/C [7] was 99.3%, the viability, T/C (second compound 0.1 µM, first compound 0.0999 µM) was 44.9% and the viability, T/C [9] was 20%. The viability, T/C (second compound 0.316 µM, first compound 0.000999 µM) was 101%, the viability, T/C (second compound 0.316 µM, first compound 0.00316 µM) was 107% and the viability, T/C (second compound 0.316 µM, first compound 0.00999 µM) was 108%. For the same compound, the viability, T/C [13] was 105%, the viability, T/C (second compound 0.316 µM, first compound 0.0999 µM) was 51.5% and the viability, T/C [15] was 18.6%. It also gave a viability, T/C (second compound 1 µM, first compound 0.000999 µM) of 101%, a viability, T/C (second compound 1 µM, first compound 0.00316 µM) of 103% and a viability, T/C (second compound 1 µM, first compound 0.00999 µM) of 112%. It also gave a viability, T/C [19] of 102%, a viability, T/C (second compound 1 µM, first compound 0.0999 µM) of 58.4% and a viability, T/C [21] of 18.6%. The viability, T/C (second compound 3.16 µM, first compound 0.000999 µM) was 105%, the viability, T/C (second compound 3.16 µM, first compound 0.00316 µM) was 105% and the viability, T/C (second compound 3.16 µM, first compound 0.00999 µM) was 110%. It also gave a viability, T/C [25] of 92.8%, a viability, T/C (second compound 3.16 µM, first compound 0.0999 µM) of 36.9% and a viability, T/C [27] of 12.1%. For the same compound, the viability, T/C (second compound 10 µM, first compound 0.000999 µM) was 106%, the viability, T/C (second compound 10 µM, first compound 0.00316 µM) was 105% and the viability, T/C (second compound 10 µM, first compound 0.00999 µM) was 109%. The viability, T/C [31] was 88.3%, the viability, T/C (second compound 10 µM, first compound 0.0999 µM) was 25.3% and the viability, T/C [33] was 11.6%.
`Nc1ccn(C2OC(CO)C(O)C2(F)F)c(=O)n1` (stereo not drawn) + Cc1[nH]c2ccc(F)cc2c1-c1nc2c3cccnc3c3ncccc3c2[nH]1 showed an IC50 (second compound 0.0316 µM) of less than 31.6 nM, an IC50 (second compound 0.1 µM) of less than 31.6 nM and an IC50 (second compound 0.316 µM) of less than 31.6 nM. For the same compound, the IC50 (second compound 1 µM) was less than 31.6 nM, the IC50 (second compound 3.16 µM) was less than 31.6 nM and the IC50 (second compound 10 µM) was less than 31.6 nM. For the same compound, the viability, T/C [1] was 7.33%, the viability, T/C [2] was 1.13% and the viability, T/C [3] was 0.84%. The viability, T/C [4] was 0.84%, the viability, T/C [5] was 1.15% and the viability, T/C [6] was 0.76%. It also gave a viability, T/C [7] of 7.75%, a viability, T/C [8] of 1% and a viability, T/C [9] of 1.28%. The viability, T/C [10] was 1.1%, the viability, T/C [11] was 0.83% and the viability, T/C [12] was 0.76%. It also gave a viability, T/C [13] of 5.74%, a viability, T/C [14] of 1.09% and a viability, T/C [15] of 1.33%. For the same compound, the viability, T/C [16] was 0.83%, the viability, T/C [17] was 0.67% and the viability, T/C [18] was 0.86%. For the same compound, the viability, T/C [19] was 7.53%, the viability, T/C [20] was 0.98% and the viability, T/C [21] was 1.01%. The viability, T/C [22] was 0.85%, the viability, T/C [23] was 0.92% and the viability, T/C [24] was 0.83%. For the same compound, the viability, T/C [25] was 4.68%, the viability, T/C [26] was 1.2% and the viability, T/C [27] was 1.1%. It also gave a viability, T/C [28] of 0.82%, a viability, T/C [29] of 1.7% and a viability, T/C [30] of 0.93%. It also gave a viability, T/C [31] of 2.75%, a viability, T/C [32] of 1.07% and a viability, T/C [33] of 0.98%. For the same compound, the viability, T/C [34] was 0.76%, the viability, T/C [35] was 1.44% and the viability, T/C [36] was 0.94%.
